Assay results published in article PMC5214803 (Scientific Reports, 2017).

Biological target: T1, Apc holoenzyme (Apc core complex plus Apcε) (Aromatoleum aromaticum, UniProt Q5P5G2+Q5P5G4)
T1 construct: gene apc3
Settings: ATP sites in Apcα and Apcα′ inferred from structure

T1 sequence (Q5P5G4 2-732): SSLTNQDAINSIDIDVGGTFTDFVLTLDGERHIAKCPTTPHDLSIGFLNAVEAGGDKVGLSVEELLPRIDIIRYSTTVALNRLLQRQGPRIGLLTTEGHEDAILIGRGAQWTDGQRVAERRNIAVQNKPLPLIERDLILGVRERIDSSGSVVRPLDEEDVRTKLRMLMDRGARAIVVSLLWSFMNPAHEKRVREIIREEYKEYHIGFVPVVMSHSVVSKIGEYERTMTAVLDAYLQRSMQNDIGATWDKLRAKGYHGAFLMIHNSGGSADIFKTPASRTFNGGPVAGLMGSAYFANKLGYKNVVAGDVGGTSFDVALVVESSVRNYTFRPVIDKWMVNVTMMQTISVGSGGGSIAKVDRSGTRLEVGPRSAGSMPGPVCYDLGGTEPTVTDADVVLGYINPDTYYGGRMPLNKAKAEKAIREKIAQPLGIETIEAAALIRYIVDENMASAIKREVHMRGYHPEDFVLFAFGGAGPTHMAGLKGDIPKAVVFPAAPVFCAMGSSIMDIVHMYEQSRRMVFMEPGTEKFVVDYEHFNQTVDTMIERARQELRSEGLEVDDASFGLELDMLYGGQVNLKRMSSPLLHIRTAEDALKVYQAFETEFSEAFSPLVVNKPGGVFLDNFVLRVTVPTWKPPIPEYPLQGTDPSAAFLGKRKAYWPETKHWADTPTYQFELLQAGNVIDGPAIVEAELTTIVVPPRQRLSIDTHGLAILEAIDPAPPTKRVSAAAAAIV
T1 sequence (Q5P5G2 whole entry): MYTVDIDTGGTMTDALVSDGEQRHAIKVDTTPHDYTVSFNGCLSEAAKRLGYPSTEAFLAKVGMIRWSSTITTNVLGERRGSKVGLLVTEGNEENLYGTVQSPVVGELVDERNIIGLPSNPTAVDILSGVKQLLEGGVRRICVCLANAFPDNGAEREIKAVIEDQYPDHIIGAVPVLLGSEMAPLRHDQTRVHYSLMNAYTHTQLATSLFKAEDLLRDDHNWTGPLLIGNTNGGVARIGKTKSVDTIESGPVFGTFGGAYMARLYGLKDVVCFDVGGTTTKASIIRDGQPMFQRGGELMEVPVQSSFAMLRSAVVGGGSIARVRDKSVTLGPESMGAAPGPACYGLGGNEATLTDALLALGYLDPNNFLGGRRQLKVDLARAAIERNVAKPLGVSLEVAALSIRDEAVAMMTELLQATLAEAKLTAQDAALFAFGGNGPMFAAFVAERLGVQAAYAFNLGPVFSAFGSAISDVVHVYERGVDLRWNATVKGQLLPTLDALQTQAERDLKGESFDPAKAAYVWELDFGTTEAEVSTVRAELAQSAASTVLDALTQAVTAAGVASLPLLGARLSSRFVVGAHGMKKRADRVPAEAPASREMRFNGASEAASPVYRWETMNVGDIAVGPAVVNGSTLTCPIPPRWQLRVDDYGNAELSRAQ
T1 sequence (Q5P5G5 2-684 partner): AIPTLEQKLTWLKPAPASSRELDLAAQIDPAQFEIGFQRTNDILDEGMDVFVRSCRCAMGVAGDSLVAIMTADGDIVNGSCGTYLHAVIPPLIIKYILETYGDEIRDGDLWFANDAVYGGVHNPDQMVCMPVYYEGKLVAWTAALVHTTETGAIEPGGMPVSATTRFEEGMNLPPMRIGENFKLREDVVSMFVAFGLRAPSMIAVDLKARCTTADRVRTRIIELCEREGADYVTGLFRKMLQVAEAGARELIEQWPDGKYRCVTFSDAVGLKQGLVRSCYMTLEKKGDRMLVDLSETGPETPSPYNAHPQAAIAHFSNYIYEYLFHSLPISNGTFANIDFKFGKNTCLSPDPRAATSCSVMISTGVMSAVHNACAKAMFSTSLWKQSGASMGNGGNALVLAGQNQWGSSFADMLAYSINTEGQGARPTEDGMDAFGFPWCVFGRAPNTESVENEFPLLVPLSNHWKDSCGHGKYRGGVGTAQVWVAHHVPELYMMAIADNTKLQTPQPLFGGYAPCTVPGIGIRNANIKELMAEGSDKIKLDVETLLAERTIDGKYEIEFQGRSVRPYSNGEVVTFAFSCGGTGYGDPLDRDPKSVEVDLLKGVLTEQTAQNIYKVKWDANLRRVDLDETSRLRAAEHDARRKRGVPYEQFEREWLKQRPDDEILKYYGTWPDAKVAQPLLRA
T1 sequence (Q5P5G3 whole entry partner): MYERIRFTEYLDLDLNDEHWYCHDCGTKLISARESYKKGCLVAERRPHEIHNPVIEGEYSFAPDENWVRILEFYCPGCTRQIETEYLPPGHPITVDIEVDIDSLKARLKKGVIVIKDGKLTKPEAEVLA
T1 sequence (Q5P5G6 whole entry partner): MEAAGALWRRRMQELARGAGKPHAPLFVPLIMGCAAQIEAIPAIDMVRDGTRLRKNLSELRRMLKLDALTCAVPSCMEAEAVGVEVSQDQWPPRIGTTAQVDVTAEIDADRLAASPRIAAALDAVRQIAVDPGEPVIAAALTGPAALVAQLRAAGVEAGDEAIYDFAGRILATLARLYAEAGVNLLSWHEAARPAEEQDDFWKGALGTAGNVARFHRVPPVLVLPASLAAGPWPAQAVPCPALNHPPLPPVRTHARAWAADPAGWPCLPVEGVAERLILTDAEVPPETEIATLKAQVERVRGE

`Nc1ncnc2c1ncn2[C@@H]1O[C@H](COP(=O)(O)OP(=O)(O)OP(=O)(O)O)[C@@H](O)[C@H]1O` [ATP] was tested, and the ATPase activity assay was “confirmed by determination of the ATPase activity and carboxylation of acetophenone”.
